According to article PMC3433420 (PLoS ONE, 2012):
Each block holds one molecule with its values, some of them ahead of it. Residues, ends and D or L forms follow the SMILES beside them.

Legend:
SH2D2A SH2 domain = SH2D2A SH2 domain (Homo sapiens, UniProt Q9NP31); experiment: FP saturation binding assay
SH2D1A SH2 domain = target: T1, SH2D1A SH2 domain (Homo sapiens, UniProt O60880); experiment: FP saturation binding assay; details: for KD range of recruitment of SH2D1A (SHD1A [sic]): FP saturation assay
T1 sequence (O60880 6-104 limits assumed): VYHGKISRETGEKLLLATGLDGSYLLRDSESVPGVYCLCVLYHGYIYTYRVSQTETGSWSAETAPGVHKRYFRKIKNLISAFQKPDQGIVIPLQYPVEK

[1] = target: PIK3R2-NC tandem SH2 domains (Homo sapiens, UniProt O00459); experiment: FP saturation binding assay
[2] = target: T2, PIK3R3-NC tandem SH2 domains (Homo sapiens, UniProt Q92569); experiment: FP saturation binding assay; details: Protein PIK3R3-NC; FP saturation binding, high-confidence ErbB interactions; mean over replicate hits
T2 construct: the tandem protein was included in our analysis with all internal amino acids linking the domains; 6X His; thioredoxin; made in house; host or cells: E. coli BL21(DE3)pLysS
Description: (§1) (See Figure 1A) Rhodamine-labeled peptides were dissolved in assay buffer (20 mM HEPES, 100 mM KCl, 0.1% Tween-20, 5 mM DTT, pH 7.8), diluted to a concentration of 20 nM, and plated into black 384-well plates (Corning, Corning, NY) at 5 µL/well using a Perkin Elmer EP3 pipetting workstation (V&P Scientific, Inc., San Diego, CA). SH2, PTB, and thioredoxin control proteins were plated into the first column of 2 mL 96-well plates (Corning) at a concentration of 20 µM and serially diluted 1∶2 into freezing buffer (300 mM NaCl, 50 mM Na2PO4, pH 8, 20% glycerol v/v) eleven times using a Tecan Freedom EVO 100 workstation (Tecan, Männedorf, Switzerland). For the interaction assay, 5 µL of each of the twelve protein concentrations was added to the peptide-containing 384-well plates via the EP3 resulting in a protein dilution range of 0.002–10 µM and a final volume of 10 µL; peptide concentration was fixed at 10 nM. Peptide/protein samples were incubated for 20 minutes at room temperature in the dark and fluorescence polarization (FP) was measured in an Analyst GT multimode reader (Molecular Devices, Sunnyvale, CA) with excitation and emission wavelengths of 530 nm and 555 nm, respectively. Experimental values were output as millipolarization (mP) units and imported into MATLAB (The MathWorks, Inc., Natick, MA) in which equation (1) was used to determine dissociation constants (KDs) for each protein/peptide pairing by least squares nonlinear regression. [drawing 1] (1)
(§2) FP was described by the following equation: P=Iparallel-IperpendicularIparallel+Iperpendicular, where “P” denotes polarization, and “I” denotes the fluorescent intensity relative to the plane of incident light. Experimental values were output as millipolarization (mP) units and imported into MATLAB where the following equation was used to determine dissociation constants (KDs) for each protein/peptide pairing by least squares nonlinear regression:
(§3) Pobs=Pmax∙ProteinKD+Protein [picture] (1)
Peptides were initially tested for systematic plate effects across protein dilutions and nonspecific binding to thioredoxin by linear regression analysis and any effects were regressed out. The median baseline control polarization value for each plate was then subtracted from each data point to make each binding curve intersect at zero. Plates with excessive variation in baseline control polarizations on both a global and run-specific manner (Dixon’s Q test, p < 0.05) were excluded from further analysis. Outliers in each binding curve were identified and removed using an iterative procedure as follows. The residuals for each fit were used to calculate a global standard deviation of the residuals (GSDR) for each concentration of SH2 domain over all interactions, and individual data points with residuals < or > two GSDR from the global mean residual were flagged as outliers. The outlier with the largest residual from each interaction was removed and nonlinear regression was again performed. This procedure was repeated if additional outliers were identified for an interaction, discarding the interaction if the number of outliers exceeded three. […] In order to further control our false positive rate against hidden confounding variables producing binding artifacts, we sought to determine whether there was a significant relationship between the strength of an interaction and its technical replication rate at our stringent significance and filtering thresholds. We performed logistic regression on the proportion of successful replicates for each interaction query against KD for all interactions (Figure S15A). […] This is related to the observation that the majority of interactions detected by FP are tight (Figure S15B). With this logit model, we assigned a probability to each peptide-protein interaction in our data by using a binomial proportions test to compare the observed versus the expected replication rate at the particular KD of that interaction (Table S4). […]

[3] = target: T3, PLCG1-NC tandem SH2 domains (Homo sapiens, UniProt P19174); experiment: FP saturation binding assay; details: Protein PLCG1-NC; FP saturation binding, high-confidence ErbB interactions; mean over replicate hits
T3 construct: the tandem protein was included in our analysis with all internal amino acids linking the domains; 6X His; thioredoxin; made in house; host or cells: E. coli BL21(DE3)pLysS
T3 sequence (P19174 550-756 limits assumed): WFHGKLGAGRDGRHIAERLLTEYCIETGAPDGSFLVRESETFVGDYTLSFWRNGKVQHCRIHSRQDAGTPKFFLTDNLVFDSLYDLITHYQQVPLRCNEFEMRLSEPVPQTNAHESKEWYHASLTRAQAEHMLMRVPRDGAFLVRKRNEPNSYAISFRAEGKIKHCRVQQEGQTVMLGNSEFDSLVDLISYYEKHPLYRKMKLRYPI
Description: as §1, with “Peptide/protein samples were incubated for 20 minutes at room temperature in the dark and fluorescence polarization (FP) was measured in an Analyst GT multimode reader (Molecular Devices, Sunnyvale, CA) with excitation and emission wavelengths of 530 nm and 555 nm, respectively.” left out
as §2, §3
Peptides were initially tested for systematic plate effects across protein dilutions and nonspecific binding to thioredoxin by linear regression analysis and any effects were regressed out. The median baseline control polarization value for each plate was then subtracted from each data point to make each binding curve intersect at zero. Plates with excessive variation in baseline control polarizations on both a global and run-specific manner (Dixon’s Q test, p < 0.05) were excluded from further analysis. Outliers in each binding curve were identified and removed using an iterative procedure as follows. The residuals for each fit were used to calculate a global standard deviation of the residuals (GSDR) for each concentration of SH2 domain over all interactions, and individual data points with residuals < or > two GSDR from the global mean residual were flagged as outliers. The outlier with the largest residual from each interaction was removed and nonlinear regression was again performed. This procedure was repeated if additional outliers were identified for an interaction, discarding the interaction if the number of outliers exceeded three. […] In order to further control our false positive rate against hidden confounding variables producing binding artifacts, we sought to determine whether there was a significant relationship between the strength of an interaction and its technical replication rate at our stringent significance and filtering thresholds. We performed logistic regression on the proportion of successful replicates for each interaction query against KD for all interactions (Figure S15A). […] “High-confidence” FP interactions are defined as those having 1 - P(Observed Replication Rate | Expectation) > 0.5 and that have replicated at least twice across independent FP runs. […] The compiled FP data were organized into heatmaps generated by MATLAB and relative binding strength (µM). Peptides without at least one positive hit were classified as “no interaction” if there was no homologous sequence (i.e. identical at the +1 to +4 positions relative to the phosphotyrosine) that produced a positive interaction within the ErbB receptor family.

RASA1-N SH2 domain = target: T4, RASA1-N SH2 domain (Homo sapiens, UniProt P20936); experiment: FP saturation binding assay
T4 sequence (P20936 181-272 limits assumed): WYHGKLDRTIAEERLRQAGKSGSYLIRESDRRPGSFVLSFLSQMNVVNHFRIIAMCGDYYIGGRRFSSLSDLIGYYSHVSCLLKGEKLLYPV

PIK3R3-C SH2 domain = target: T5, PIK3R3-C SH2 domain (Homo sapiens, UniProt Q92569); experiment: biochemical; assay type: binding; details: Protein PIK3R3-C; FP saturation binding, high-confidence ErbB interactions; mean over replicate hits
T5 construct: thioredoxin; made in house; host or cells: E. coli BL21(DE3)pLysS

SH2D1B SH2 domain = target: T6, SH2D1B SH2 domain (Homo sapiens, UniProt O14796); experiment: FP saturation binding assay; details: FP saturation assay
T6 sequence (O14796 5-101 limits assumed): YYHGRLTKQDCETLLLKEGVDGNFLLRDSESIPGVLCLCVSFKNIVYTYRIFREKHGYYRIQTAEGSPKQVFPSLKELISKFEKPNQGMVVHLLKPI

Sequence of SH2D2A SH2 domain (Q9NP31 95-186 limits assumed): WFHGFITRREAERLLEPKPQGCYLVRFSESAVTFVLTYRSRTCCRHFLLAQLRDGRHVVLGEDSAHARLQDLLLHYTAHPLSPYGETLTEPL
Sequence of PIK3R2-NC tandem SH2 domains (O00459 330-716 limits assumed): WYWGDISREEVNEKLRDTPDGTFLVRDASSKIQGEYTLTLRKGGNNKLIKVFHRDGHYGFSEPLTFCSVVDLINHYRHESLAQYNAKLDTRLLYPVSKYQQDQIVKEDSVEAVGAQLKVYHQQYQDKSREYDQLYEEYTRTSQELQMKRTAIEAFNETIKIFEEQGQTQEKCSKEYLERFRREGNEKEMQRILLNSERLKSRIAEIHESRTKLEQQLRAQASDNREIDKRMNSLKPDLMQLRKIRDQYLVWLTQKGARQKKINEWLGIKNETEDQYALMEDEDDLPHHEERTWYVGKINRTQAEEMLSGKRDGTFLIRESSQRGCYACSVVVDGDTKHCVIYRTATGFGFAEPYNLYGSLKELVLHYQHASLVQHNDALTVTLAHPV

Molecule: CC[C@H](C)[C@H](NC(=O)[C@H](CCCNC(=N)N)NC(=O)[C@H](Cc1c[nH]cn1)NC(=O)[C@@H](N)CC(C)C)C(=O)N[C@@H](Cc1ccc(OP(=O)(O)O)cc1)C(=O)N[C@H](C(=O)N[C@@H](Cc1c[nH]cn1)C(=O)N[C@@H](CCC(N)=O)C(=O)N[C@@H](CO)C(=O)N[C@@H](CC(=O)O)C(=O)N[C@H](C(=O)N[C@@H](Cc1c[nH]c2ccccc12)C(=O)N[C@@H](CC(=O)O)C(=O)O)C(C)C)[C@@H](C)O [ErbB1 891 13-mer] (HELM PEPTIDE1{L.H.R.I.[O=C([C@H](Cc1ccc(OP(=O)(O)O)cc1)N[*:1])[*:2]].T.H.Q.S.D.V.W.D}$$$$V2.0)
Kd (SH2D2A SH2 domain): 13.4 µM

Molecule: CC[C@H](C)[C@H](NC(=O)CNC(=O)[C@H](CC(=O)O)NC(=O)[C@H](Cc1ccc(OP(=O)(O)O)cc1)NC(=O)[C@@H]1CCCN1C(=O)[C@H](CCCCN)NC(=O)[C@H](CO)NC(=O)CN)C(=O)N1CCC[C@H]1C(=O)N[C@@H](C)C(=O)N[C@@H](CO)C(=O)N[C@@H](CCC(=O)O)C(=O)N[C@@H](CC(=O)O)C(=O)O [ErbB1 915 13-mer] (HELM PEPTIDE1{G.S.K.P.[O=C([C@H](Cc1ccc(OP(=O)(O)O)cc1)N[*:1])[*:2]].D.G.I.P.A.S.E.D}$$$$V2.0)
Kd (SH2D1A SH2 domain): 14.5 µM
Kd (SH2D2A SH2 domain): 4.77 µM

Molecule: CC[C@H](C)[C@H](NC(=O)[C@H](Cc1ccc(OP(=O)(O)O)cc1)NC(=O)[C@H](CCC(=O)O)NC(=O)[C@@H]1CCCN1C(=O)[C@@H](NC(=O)[C@@H]1CCCN1)C(C)C)C(=O)N[C@@H](CC(N)=O)C(=O)N[C@@H](CCC(N)=O)C(=O)N[C@@H](CO)C(=O)N[C@H](C(=O)N1CCC[C@H]1C(=O)N[C@@H](CCCCN)C(=O)N[C@@H](CC(=O)O)C(=O)O)C(C)C [ErbB1 1092 13-mer]
Kd (SH2D2A SH2 domain): 10.9 µM
Kd [1]: 11.2 µM
Kd [2]: 8.64 µM
Kd [3]: 7.58 µM

Molecule: NCCCC[C@H](NC(=O)[C@@H]1CCCN1C(=O)[C@H](Cc1ccccc1)NC(=O)[C@H](Cc1ccccc1)NC(=O)[C@H](CC(=O)O)NC(=O)[C@H](CCC(N)=O)NC(=O)[C@H](CCC(N)=O)NC(=O)[C@H](Cc1ccc(OP(=O)(O)O)cc1)NC(=O)[C@H](CC(=O)O)NC(=O)[C@@H]1CCCN1C(=O)[C@H](CC(N)=O)NC(=O)[C@@H](N)CC(=O)O)C(=O)N[C@@H](CC(=O)O)C(=O)O [ErbB1 1172 13-mer] (HELM PEPTIDE1{D.N.P.D.[O=C([C@H](Cc1ccc(OP(=O)(O)O)cc1)N[*:1])[*:2]].Q.Q.D.F.F.P.K.D}$$$$V2.0)
Kd (RASA1-N SH2 domain): 4.17 µM
Kd [3]: 7.79 µM
Kd (PIK3R3-C SH2 domain): 12.6 µM

Molecule: CSCC[C@H](NC(=O)[C@H](Cc1ccc(OP(=O)(O)O)cc1)NC(=O)[C@H](CCC(=O)O)NC(=O)[C@H](Cc1ccc(O)cc1)NC(=O)[C@H](CCC(=O)O)NC(=O)[C@@H](N)CCC(=O)O)C(=O)N[C@@H](CC(N)=O)C(=O)N[C@@H](CCCNC(=N)N)C(=O)N[C@@H](CCCNC(=N)N)C(=O)N[C@@H](CCCNC(=N)N)C(=O)N[C@@H](CCCNC(=N)N)C(=O)N[C@@H](Cc1c[nH]cn1)C(=O)N[C@@H](CC(=O)O)C(=O)O [ErbB3 1199 13-mer] (HELM PEPTIDE1{E.E.Y.E.[O=C([C@H](Cc1ccc(OP(=O)(O)O)cc1)N[*:1])[*:2]].M.N.R.R.R.R.H.D}$$$$V2.0)
Kd (SH2D2A SH2 domain): 13.9 µM

KD range of recruitment of SH2D1B (SH2D1B SH2 domain): in the nM KD range
KD range of recruitment of SH2D1A (SHD1A [sic]) (SH2D1A SH2 domain): in the nM KD range
Molecule: FGTVpYKGIWVPEd [ErbB4 pY733]

KD range of recruitment of SH2D1B (SH2D1B SH2 domain): in the nM KD range
KD range of recruitment of SH2D1A (SHD1A [sic]) (SH2D1A SH2 domain): in the nM KD range
Molecule: LDEApYVMAGVGS [ErbB2 pY772]
